# Assay results as given in US20200038641A1, “DRUG DELIVERY DEVICE WITH REMOVABLE PODS AND RELATED PODS, METHODS AND SYSTEMS” (priority 2017, published 2020).
# Like-named read-outs stand apart in the source and are kept apart here.
# Experiments:
# [1] = women, after 7 days of IVR use
# Excerpt: The trial consisted of an open-label, crossover design where six participants sequentially used a TDF pod-IVR for seven days followed by a TDF-FTC pod-IVR, with a washout period of at least 14 days between each treatment period. Women who were clinically deemed eligible returned to the clinic for IVR insertion visit (Visit 1, TDF IVR; Visit 5, TDF-FTC IVR) after cessation of menses. Women returned for Visit 2 (TDF IVR) or Visit 6 (TDF-FTC IVR) on Day 2 (±1 d) after IVR insertion and for Visit 3 (TDF IVR) or Visit 7 (TDF-FTC IVR) on Day 7 (±1 d) when the IVRs were removed. At Visit 3/7, vaginal biopsies were obtained, and the IVRs were collected. Tissue samples were ultimately reported as ng/mg or fmol/mg, respectively, following normalization to net biopsy or Dacron swab weight.
# [2] = cited from earlier work
# [3] = sheep, in vivo
# Method: FIG. 15 illustrates a graph of cervicovaginal lavage concentration (median+SD) of estonogestrel (1510) and ethiny estradiol (1505) delivered simultaneously via combination pod IVRs over 28 days in sheep (n=3). Inverted triangles: estonogestrel; Diamonds: ethiny estradiol.
# FIG. 15 illustrates a graph of ETG-EE release: ETG (1510); EE (1505). The pod-in-rings for this example delivered etonogestrel (ETG) and […]. The silicone pod IVRs contained two pods of EE at 16 mg API per pod (32 mg drug per ring) and ETG at 10 mg API per pod (20 mg drug per ring). Median ETG CVL levels (13±6.9 nM) were 8 times higher than the corresponding […] levels (1.6±1.2 nM), in agreement with the relative daily release rates of ETG and EE from the NuvaRing® (120 μg day^−1 and 15 μg day^−1, respectively). Plasma levels were not measured, the preliminary results should imply a match for in vivo and in vitro release compared to Nuvaring®.
# [4] = systemic delivery; cited from earlier work
# [5] = beyond 190° C.; cited from earlier work
# HSV = assay: Inhibition of HSV infection by acyclovir, dose-response curve; format: cell-based; conditions: drug added at the time of HSV challenge and in the overlay medium; read-out: concentration of acyclovir that inhibits infection by 50% (IC50)
# Method: The concentration of acyclovir that inhibits infection by 50% (IC50) when drug was added at the time of HSV challenge and in the overlay medium was ˜700 ng/mL.
# In FIG. 16, panel A (1605), the percentage inhibition of HSV infection was determined in the presence of increasing concentrations of acyclovir (ACV). In panel B (1610) the percentage inhibition of HSV infection was determined in the presence of the indicated CVL sample or control fluid. Results are means from duplicate wells and each participant is represented by a different symbol (1615); the horizontal lines (1620) indicate the medians for the groups. In panel C (1625), the relationship between drug levels and percentage inhibition was determined by the Spearman correlation coefficient. Filled circles (1630) represent CVL samples obtained 24 h after oral VCV dosing, and open circles (1635) are CVL samples obtained 7 days after ring insertion.
compound,measurement,setting,value
"CC(Cn1cnc2c(N)ncnc21)OCP(=O)(O)OP(=O)(O)OP(=O)(O)O (stereo in doubt) [TFV-DP, Tenofovir diphosphate]",vaginal biopsy homogenate tissue levels,[1],high enough for PrEP action
"C#C[C@]1(O)CC[C@H]2[C@@H]3CCc4cc(O)ccc4[C@H]3CC[C@@]21C [EE, Ethinyl Estradiol]",solubility in water,[2],highly hydrophobic
"C#C[C@]1(O)CC[C@H]2[C@@H]3CCC4=CC(=O)CC[C@@H]4[C@H]3C(=C)C[C@@]21CC [ETG, Etonogestrel]",ETG CVL levels relative to estradiol (E2) levels,[3],8 times
same,solubility in water,[2],highly hydrophobic
"Nc1nc(=O)n([C@@H]2CS[C@H](CO)O2)cc1F [FTC, Emtricitabine]",vaginal biopsy homogenate tissue levels,[1],high enough for PrEP action
Cc1nc(N(C)C(=O)Cc2ccc(-c3ccccn3)cc2)sc1S(N)(=O)=O [Pritelivir],toxicity when delivered systemically,[4],significant toxicity
same,solubility in water,[2],insoluble in water
same,solubility in water,[2]; listed as pritelivir,low solubility
Nc1nc2c(ncn2COCCO)c(=O)[nH]1 [acyclovir],thermal stability,[5],higher thermal stability even beyond 190 °C
same,solubility in water,[2],extremely water soluble
same,IC50,HSV,~0.7 µg/mL
CCNC(=O)[C@@H]1CCCN1C(=O)[C@H](CCCNC(=N)N)NC(=O)[C@H](CC(C)C)NC(=O)[C@@H](CC(C)C)NC(=O)[C@H](Cc1ccc(O)cc1)NC(=O)[C@H](CO)NC(=O)[C@H](Cc1c[nH]c2ccccc12)NC(=O)[C@H](Cc1c[nH]cn1)NC(=O)[C@@H]1CCC(=O)N1 [leuprolide],thermal stability,[5],not heat-stable beyond 190 °C
C[C@@H](O)[C@@H]1NC(=O)[C@H](CCCCN)NC(=O)[C@@H](Cc2c[nH]c3ccccc23)NC(=O)[C@H](Cc2ccccc2)NC(=O)[C@@H](NC(=O)[C@H](N)Cc2ccccc2)CSSC[C@@H](C(=O)N[C@H](CO)[C@@H](C)O)NC1=O [octreotide],solubility in water,[2],very soluble
